Ends that are not written are not given here.

One experiment concerns 3T3-L1 adipocytes. Kind of experiment: [14C] 2-deoxy-D-glucose uptake in 3T3-L1 adipocytes. The format is cell-based. Particulars: for effect of pretreatment on LPC-stimulated glucose uptake: then 20 μM LPC 10 min; for stimulation of glucose uptake: equimolar 20 μM, 10 min; for time and dose dependence of glucose uptake: various concentrations. As to the method:
Cell culture: 3T3-L1 fibroblasts were grown to confluence in DMEM containing a high glucose concentration, 10% fetal bovine serum, 50 U of penicillin per ml, and 50 ug of streptomycin per ml and maintained in a 5% CO2 humidified atmosphere at 37° C. 3T3-L1 was induced to differentiate into adipocytes, as described previously (van den Berghe, N., et al., Mol Cell Biol 14, pp. 2372-2377, 1994).
Glucose uptake measurement. For measuring glucose uptake in 3T3-L1 adipocytes, cells were grown in serum-free DMEM for 16 h and then incubated in the absence or presence of insulin or lysophospholipids for the indicated times at 37° C. Uptake was measured by adding 1 μCi of [^14C] 2-deoxy-D-glucose and 3 mM 2-deoxy-D-glucose. After 10 min, the assay was terminated by two quick washes with ice-cold PBS. Cells were lysed in 0:5 ml of lysis buffer containing 0.5 N NaOH and 0.1% SDS. The cell lysates were used for liquid scintillation counting and nonspecific uptake was assayed in the presence of 10 μM cytochalasin B (van den Berghe, N., et al., Mol Cell Biol 14, pp. 2372-2377, 1994).
FIG. 2A to 2D show the effects of LPC on the glucose uptake in 3T3-L1 adipocytes. […] After these treatments, [^14C] 2-deoxy-D-glucose uptake was measured for 10 min as described in Material Methods. […] FIGS. 2C and 2D show relative [^14C] 2-deoxy-D-glucose uptake in 3T3-L1 adipocytes incubated in the absence (control) or presence of equimolar concentrations (20 μM) of myristoyl lysophosphatidylcholine (14:0 LPC), palmytoyl lysophosphatidylcholine (16:0 LPC), stearoyl lysophosphatidylcholine (18:0 LPC), palmytoyl lysophsophatidylethanolamine (16:0 LPE), palmytoyl lyso-phosphatidylinositol (16:0 LPI), palmytoyl lysophosphatidylglycerol (16:0 LPG) for 10 min. Values are mean±SE of three independent experiments performed in triplicate. *P<0.05 vs. basal.

Experiment [1] deals with male ICR mice. Nature of the experiment: Acute blood glucose lowering in normal ICR mice after intravenous lysophospholipid. The format is in vivo, mouse. The settings on record: for level of blood glucose in normal mice: intravenous, 0 to 120 min after dosing.
The subject of the next experiment is insulin receptor (IR). Kind of experiment: IR autophosphorylation in hIRcB cells. The format is cell-based, human. The settings on record: hIRcB cells. As to the method: FIG. 12A shown a comparison of insulin sensitizing effect among CRF family which was obtained by incubating cells with 1 μM CRF family and/or 2 nM insulin or with medium alone for 1 min. […] FIG. 12B was obtained by incubating cells with 2 nM insulin and variant dose of UCN (from 2 nM to 1 μM) for 1 min. FIG. 12C was obtained by incubating cells 100 nM UCN and variant dose of insulin for 1 min. Phosphorlyation of IR was assessed by western blotting with anti-pTyr antibodies. FIG. 13D was obtained by incubating cells with 100 nM UCN and/or 10 nM insulin for 0, 2, 10, 30, and 60 min, and then assessing the phosphorlyation of IR by western blotting with anti-pIR antibodies. Quantization of IR autophosphorylation was measured with image gauge software (Fuji film). The values are the mean±S.E. for three experiments. *, P<0.05
hIRcB cells were maintained in DMEM, supplemented with 10% (v/v) FBS. The cells were grown at 37° C. in a humidified atmosphere of 5% CO2 and 95% air.
After treatment of ligands as indicated time and dose, the cells were washed with cold PBS and lysed with lysis buffer (50 mM HEPES pH 7.5, 150 mM NaCl, 1%
Triton X-100, 1 mM EDTA, 10% glycerol) containing protease inhibitors (0.5 mM PMSF, 1 μg/ml leupeptin and 5 μg/ml aprotinin) and phosphatase inhibitors (30 mM NaF, 1 mM Na3VO4 and 30 mM Na4O7P2). The cell lysates were incubated for 1 hr at 4° C. After centrifugation (14,000×g for 15 min), equal amounts of soluble extract were incubated, for 4 hrs, with 5 μg of anti-IR antibody and 30 μl of resin volume of immobilized protein A. For gel electrophoresis, the precipitates were dissolved in Laemmli sample buffer. The sample was separated by SDS-PAGE and transferred to a nitrocellulose membrane (Schleicher and Schuell, BA85). Blocking was performed with TTBS buffer (10 mM Tris/HCl, pH 7.5, 150 mM NaCl, and 0.05% Tween 20) containing 5% skimmed milk powder. The membrane was probed with primary for 3 hrs at room temperature. Subsequently the immunoblot was washed and incubated with horseradish peroxidase-linked secondary antibody for 1 hr at room temperature, rinsed four times in TTBS buffer, and developed with horseradish peroxidase-dependent chemiluminescence reagents (Amersham International, United Kingdom).

The subject of a further experiment is IRS1 and AKT. Nature of the experiment: IRS1 and AKT phosphorylation in 3T3-L1 adipocytes (immunoblot). The format is cell-based. The settings on record: LPA treatment of 3T3-L1 adipocytes. As to the method:
Immunoblotting. For preparing total cell lysates, 3T3-L1 adipocytes were washed with Ca^2+/Mg^2+-free PBS and then lysed in the lysis buffer (50 mM HEPES, pH 7.2, 150 mM NaCl, 50 mM NaF, 1 mM Na3VO4, 10% glycerol, 1% Triton X-100). The lysates were centrifuged at 15,000 rpm for 15 min at 4° C. The proteins were denatured by boiling in laemmli sample buffer for 5 min at 95° C., separated by SDS-PAGE. SDS-gel was transferred to nitrocellulose membrane using Hoefer wet transfer system. Membranes were blocked in TTBS (20 mM Tris-HCl, pH 7.6, 150 mM NaCl, 0.05% Tween 20) containing 5% skimmed milk powder for 30 min and then incubated with antibodies for 3 hours. After washing membranes several times with TTBS, the blots were incubated with HRP (Horseradish peroxidase)-conjugated goat anti-rabbit for 1 hour. The blots were washed with TTBS and developed by ECL.

The test system of experiment [2] is male ICR mice. Nature of the experiment: Serum insulin level in mice after single intravenous injection. The format is in vivo, mouse. The protocol: (§1) Animals. Male ICR mice were purchased from hyochang science (ROK). C57BLKSJ-db/db mice were purchased from SLC (Japan). After intravenous injection of LPC, blood glucose was measured regularly with a portable glucose meter (Gluco-Dr, ROK) after tail snipping. For measurement of serum insulin, blood samples of mice were determined with the insulin-RIA Kit (LINCO, Missouri). Insulin deficient mice were induced in male ICR mice by two consecutive daily intraperitoneal injection of STZ (200 mg/kg) dissolved in sodium citrate (pH 5.5). On the third day after the last STZ injection, acute glucose lowering effect was analyzed after intravenous injection of vehicle, LPC or insulin as described above.
(§2) Eight-week-old male mice were intravenously injected with PBS, insulin, LPC, or LPE. Blood glucose was monitored after dosing (0 to 120 min). […] All animals had free access to water. Animal care was in accordance with institutional guidelines. All data are shown as means±SE (n=5-6).*P<0.05.

Experiment [3] concerns STZ-treated insulin deficient ICR male mice. Kind of experiment: Acute glucose lowering in streptozotocin (STZ)-treated insulin deficient ICR mice. The format is in vivo, mouse. Particulars: LPS injected, dose not given. The protocol:
as §1, §2

[4] abbreviates: 3T3-L1 adipocytes, 10 min incubation.

Regarding `Cn1c2ccccc2c2c3c(c4c5ccccc5n(CCC#N)c4c21)CNC3=O` [Gö6976, reference compound], the “effect of pretreatment on LPC-stimulated glucose uptake” value in the experiment with 3T3-L1 adipocytes (2 μM Gö6976 for 30 min) is “did not alter LPC stimulation of glucose uptake”.
Consider `Cc1noc(-c2ccc(CSCCC(=O)O)cc2)c1NC(=O)OC(C)c1ccccc1Cl` (centres unmarked) [Ki16425, reference compound], for which the “effect of pretreatment on LPA-stimulated glucose uptake” value with 3T3-L1 adipocytes (Ki16425 (LPA receptor antagonist) pretreatment) is “completely inhibited”. The “effect on the glucose lowering effect by LPA” value in the experiment on male ICR mice [1] (Ki16425 injected prior to administration of LPA) was “inhibited”.
With `CCCCCCCCCCCCC/C=C/[C@@H](O)[C@@H](N)COP(=O)(O)O` [S1P], the “level of blood glucose in normal mice” value in the experiment with male ICR mice [1] (LPA study (FIG. 11A, 11B)) was “did not lower the blood glucose level in normal mice”; in the experiment with male ICR mice [1] (LPS study (FIG. 7A, 7B)), “did not lower the blood glucose level in normal mice”.
As for `CCCCCCCCCCCCCC(=O)OCC(O)COP(=O)([O-])OCC[N+](C)(C)C` (centres unmarked) [myristoyl LPC, myristoyl lysophosphatidylcholine], the “stimulation of glucose uptake” value in the experiment with 3T3-L1 adipocytes is listed as “stimulated glucose uptake”.
In the case of `CCCCCCCCCCCCCCCC(=O)OC[C@@H](O)COP(=O)(O)OCCN` [palmytoyl LPE, palmytoyl lysophsophatidylethanolamine], the “stimulation of glucose uptake” value in the experiment on 3T3-L1 adipocytes was “did not stimulate glucose uptake”. Besides, the “level of blood glucose in normal mice” value in the experiment on male ICR mice [1] (LPA study (FIG. 11A, 11B)) is recorded as “did not lower the blood glucose level in normal mice”; in the experiment with male ICR mice [1] (LPS study (FIG. 7A, 7B)) it was “did not lower the blood glucose level in normal mice”.
With `CCCCCCCCCCCCCCCC(=O)OC[C@@H](O)COP(=O)(O)OCC(O)CO` (some centres unmarked) [palmytoyl LPG, palmytoyl lysophosphatidylglycerol, reference compound], the “stimulation of glucose uptake” value in the experiment on 3T3-L1 adipocytes is on record as “did not stimulate glucose uptake”.
As for `CCCCCCCCCCCCCCCC(=O)OCC(O)COP(=O)(O)OC1C(O)C(O)C(O)C(O)C1O` (centres unmarked) [palmytoyl LPI, palmytoyl lyso-phosphatidylinositol, reference compound], the “stimulation of glucose uptake” value in the experiment on 3T3-L1 adipocytes is given as “did not stimulate glucose uptake”.
For the compound `CC(=O)c1c(O)c(C)c(O)c(Cc2c(O)c3c(c(C(=O)/C=C/c4ccccc4)c2O)OC(C)(C)C=C3)c1O` [rottlerin, reference compound], in the experiment with 3T3-L1 adipocytes (10 μM rottlerin for 30 min), the “effect of pretreatment on LPC-stimulated glucose uptake” value is reported as “completely inhibited”.
`CCCCCCCCCCCCCCCCCC(=O)OCC(O)COP(=O)([O-])OCC[N+](C)(C)C` (centres unmarked) [stearoyl LPC, stearoyl lysophosphatidylcholine, reference compound]: the “stimulation of glucose uptake” value with 3T3-L1 adipocytes was “did not stimulate glucose uptake”.
On to “CRF: Corticotrophin releasing factor (CRF), synthesized from Anygen (SEEPPISLDLTFHLLREVLEMARAEQLAQQAHSNRKLMEII; ends and bridges not checked; UniProt P06850 154-194, looked up) [reference compound]”, for which the “insulin-mediated IR phosphorylation” value with insulin receptor (IR) (1 μM CRF family peptide with 2 nM insulin, 1 min) is given as “potentate insulin-mediated IR phosphorylation”. Also, in the experiment on insulin receptor (IR) (without insulin), the “IR phosphorylation by peptide alone” value is “no effect on IR phosphorylation”.
As to lysophosphatidic acid [LPA], the “incubation time at which glucose uptake was maximally increased” value in the experiment on 3T3-L1 adipocytes (20 μM, 0 to 20 min) is 10 min. In addition, in the experiment on 3T3-L1 adipocytes (setting [4]), the “concentration of initial statistically significant effect on glucose uptake” value amounted to 1 µM and the “concentration of maximal effect on glucose uptake” value turned out to be 20 µM. Besides, the “time and dose dependence of glucose uptake” value with 3T3-L1 adipocytes (3T3-L1 adipocytes) is “time- and dose-dependent increase in glucose uptake”. In addition, the “Gαi dependence of glucose uptake stimulation” value with 3T3-L1 adipocytes (Gαi inhibitor pertussis toxin) is listed as “stimulates glucose uptake via to Gαi activation”. For the same compound, the “PI3-kinase dependence of glucose uptake stimulation” value in the experiment on 3T3-L1 adipocytes (LY294002 pretreatment) is recorded as “dependent on PI3-kinase activation”. The Akt phosphorylation result in the experiment with IRS1 and AKT is “stimulated Akt phosphorylation”. In addition, the “change in blood insulin levels” value in the experiment on male ICR mice [2] is reported as “not due to changes in blood insulin levels”. In addition, the “level of blood glucose in normal mice” value in the experiment with male ICR mice [1] (LPA study (FIG. 11A, 11B)) was “lowered the level of blood glucose in normal mice dose-dependently”.
On to lysophosphatidylserine [LPS], for which the “time and dose dependence of glucose uptake” value in the experiment on 3T3-L1 adipocytes (3T3-L1 adipocytes) was “stimulate glucose uptake with dose dependent manner”. Further, in the experiment with 3T3-L1 adipocytes, the “stimulation of glucose uptake” value was “specifically stimulated glucose uptake”. The “change in blood insulin levels” value with male ICR mice [2] was “not due to changes in blood insulin levels”. Also, the “blood glucose concentrations in STZ-treated insulin deficient mice” value in experiment [3] is “significantly reduced blood glucose concentrations”. For the same compound, the “level of blood glucose in normal mice” value in the experiment on male ICR mice [1] (LPS study (FIG. 7A, 7B)) is “lowered the level of blood glucose in normal mice dose-dependently”.

The record behind these values is patent US20100120662A1, “Glucose uptake modulator and method for treating diabetes or diabetic complications” (POSTECH Foundation, priority 2005, published 2010).
